Test results reported in paper PMC8449129, “Single tracer-based protocol for broad-spectrum kinase profiling in live cells with NanoBRET” (STAR Protocols, 2021).

Tests used:
Assay in all cases: cell-based
Design in all cases: NanoBRET live-cell target engagement; % occupancy from displacement of tracer K10 on NanoLuc-kinase fusions, mean n=3
Details in all cases: HEK293, read-out: % inhibition
[1] = molecular target: LIMK2 (Homo sapiens, UniProt P53671)
Outline: (§1)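 Live-cell NanoBRET target engagement: cells expressing kinase–NanoLuc fusion with tracer treated with compound 2 h at 37 °C, 5% CO2. BRET read from donor (450 nm) and acceptor (610/630 nm) emission with 20 μM extracellular NanoLuc inhibitor; % occupancy calculated relative to tracer+DMSO and zero-BRET controls.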

[2] = molecular target: HIPK4 (Homo sapiens, UniProt Q8NE63)
Outline: as §1

[3] = molecular target: WEE1 (Homo sapiens, UniProt P30291)
Outline: as §1

[4] = molecular target: STK38 (Homo sapiens, UniProt Q15208)
Outline: as §1

[5] = molecular target: MAPK6 (Homo sapiens, UniProt Q16659)
Outline: as §1

[6] = molecular target: CSNK2A1 (Homo sapiens, UniProt P68400)
Outline: as §1

[7] = molecular target: MAP3K21 (Homo sapiens, UniProt Q5TCX8)
Outline: as §1

[8] = molecular target: CDK3 (Homo sapiens, UniProt Q00526)
Outline: as §1

[9] = molecular target: MAPK9 (Homo sapiens, UniProt P45984)
Outline: as §1

[10] = molecular target: PTK2 (Homo sapiens, UniProt Q05397)
Outline: as §1

[11] = molecular target: LATS1 (Homo sapiens, UniProt O95835)
Outline: as §1

[12] = molecular target: PRKAA2 (Homo sapiens, UniProt P54646)
Outline: as §1

[13] = molecular target: ITK (Homo sapiens, UniProt Q08881)
Outline: as §1

[14] = molecular target: CDK6 (Homo sapiens, UniProt Q00534)
Outline: as §1

[15] = molecular target: HIPK2 (Homo sapiens, UniProt Q9H2X6)
Outline: as §1

[16] = molecular target: CDK9 (Homo sapiens, UniProt P50750)
Outline: as §1

[17] = molecular target: PRKX (Homo sapiens, UniProt P51817)
Outline: as §1

[18] = molecular target: NLK (Homo sapiens, UniProt Q9UBE8)
Outline: as §1

LIMK2, sequence (P53671 whole entry, the tested form may be a part): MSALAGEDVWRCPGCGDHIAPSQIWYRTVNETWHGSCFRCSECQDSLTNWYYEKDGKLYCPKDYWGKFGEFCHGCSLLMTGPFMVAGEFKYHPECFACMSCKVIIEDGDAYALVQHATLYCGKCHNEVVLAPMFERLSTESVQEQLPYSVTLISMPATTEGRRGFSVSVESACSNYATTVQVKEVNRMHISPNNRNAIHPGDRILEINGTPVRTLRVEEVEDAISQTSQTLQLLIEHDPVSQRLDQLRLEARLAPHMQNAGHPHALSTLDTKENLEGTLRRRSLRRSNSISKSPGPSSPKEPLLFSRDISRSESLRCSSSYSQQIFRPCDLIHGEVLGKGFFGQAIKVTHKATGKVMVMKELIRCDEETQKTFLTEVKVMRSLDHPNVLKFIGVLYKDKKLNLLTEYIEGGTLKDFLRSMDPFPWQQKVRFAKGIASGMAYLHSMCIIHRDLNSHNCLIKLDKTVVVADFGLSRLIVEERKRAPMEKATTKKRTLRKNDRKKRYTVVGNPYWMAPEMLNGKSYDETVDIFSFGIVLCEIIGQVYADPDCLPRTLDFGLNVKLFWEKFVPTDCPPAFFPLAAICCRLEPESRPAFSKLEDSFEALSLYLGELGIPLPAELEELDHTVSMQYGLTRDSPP
STK38, sequence (Q15208 whole entry): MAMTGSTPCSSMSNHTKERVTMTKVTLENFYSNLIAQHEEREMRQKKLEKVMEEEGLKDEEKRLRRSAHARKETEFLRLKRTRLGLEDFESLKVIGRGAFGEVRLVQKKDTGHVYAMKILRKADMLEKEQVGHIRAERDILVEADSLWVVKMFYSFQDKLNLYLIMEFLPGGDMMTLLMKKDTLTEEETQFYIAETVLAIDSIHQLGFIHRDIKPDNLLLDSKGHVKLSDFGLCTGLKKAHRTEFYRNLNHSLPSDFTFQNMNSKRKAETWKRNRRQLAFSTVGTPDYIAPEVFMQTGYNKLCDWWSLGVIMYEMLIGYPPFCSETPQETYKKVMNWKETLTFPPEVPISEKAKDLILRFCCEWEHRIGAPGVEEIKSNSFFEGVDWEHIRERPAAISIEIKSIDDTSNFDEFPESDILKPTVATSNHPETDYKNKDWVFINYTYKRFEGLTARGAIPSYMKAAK
PTK2, sequence (Q05397 whole entry): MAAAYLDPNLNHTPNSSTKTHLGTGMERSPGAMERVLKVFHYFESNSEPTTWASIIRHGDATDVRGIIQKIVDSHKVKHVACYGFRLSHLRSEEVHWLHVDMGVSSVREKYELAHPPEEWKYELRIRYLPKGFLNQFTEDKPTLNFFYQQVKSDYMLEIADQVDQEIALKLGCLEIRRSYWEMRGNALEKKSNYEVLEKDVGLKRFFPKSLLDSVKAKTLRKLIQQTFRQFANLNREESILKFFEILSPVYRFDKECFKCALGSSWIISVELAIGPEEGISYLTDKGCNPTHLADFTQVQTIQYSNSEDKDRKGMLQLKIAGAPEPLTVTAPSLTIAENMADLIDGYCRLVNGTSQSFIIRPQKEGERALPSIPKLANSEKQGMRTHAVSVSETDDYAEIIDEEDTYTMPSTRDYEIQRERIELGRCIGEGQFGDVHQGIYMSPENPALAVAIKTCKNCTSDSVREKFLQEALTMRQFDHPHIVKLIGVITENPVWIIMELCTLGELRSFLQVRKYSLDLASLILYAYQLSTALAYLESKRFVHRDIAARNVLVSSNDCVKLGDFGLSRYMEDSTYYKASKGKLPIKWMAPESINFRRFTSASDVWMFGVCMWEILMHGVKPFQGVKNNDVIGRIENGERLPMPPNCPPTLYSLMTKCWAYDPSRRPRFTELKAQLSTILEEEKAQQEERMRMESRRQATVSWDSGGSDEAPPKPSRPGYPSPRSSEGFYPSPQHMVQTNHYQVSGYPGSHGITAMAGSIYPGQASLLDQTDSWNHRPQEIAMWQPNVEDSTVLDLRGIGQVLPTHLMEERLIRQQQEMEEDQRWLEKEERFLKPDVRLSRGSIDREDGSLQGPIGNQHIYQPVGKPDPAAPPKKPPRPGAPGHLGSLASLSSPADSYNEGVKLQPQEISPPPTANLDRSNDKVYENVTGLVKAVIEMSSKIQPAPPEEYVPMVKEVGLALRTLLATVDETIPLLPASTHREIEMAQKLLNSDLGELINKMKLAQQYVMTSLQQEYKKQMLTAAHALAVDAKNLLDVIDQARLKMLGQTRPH
CDK9, sequence (P50750 whole entry): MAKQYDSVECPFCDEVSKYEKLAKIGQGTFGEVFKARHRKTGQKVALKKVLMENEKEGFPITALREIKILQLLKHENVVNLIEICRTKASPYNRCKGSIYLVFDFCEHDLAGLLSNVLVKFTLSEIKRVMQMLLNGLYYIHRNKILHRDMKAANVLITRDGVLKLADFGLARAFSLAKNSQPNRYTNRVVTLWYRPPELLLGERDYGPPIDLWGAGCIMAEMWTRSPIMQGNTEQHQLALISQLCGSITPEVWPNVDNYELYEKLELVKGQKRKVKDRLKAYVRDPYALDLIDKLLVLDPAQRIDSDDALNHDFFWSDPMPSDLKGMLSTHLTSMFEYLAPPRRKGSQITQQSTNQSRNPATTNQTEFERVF
MAPK9, sequence (P45984 whole entry): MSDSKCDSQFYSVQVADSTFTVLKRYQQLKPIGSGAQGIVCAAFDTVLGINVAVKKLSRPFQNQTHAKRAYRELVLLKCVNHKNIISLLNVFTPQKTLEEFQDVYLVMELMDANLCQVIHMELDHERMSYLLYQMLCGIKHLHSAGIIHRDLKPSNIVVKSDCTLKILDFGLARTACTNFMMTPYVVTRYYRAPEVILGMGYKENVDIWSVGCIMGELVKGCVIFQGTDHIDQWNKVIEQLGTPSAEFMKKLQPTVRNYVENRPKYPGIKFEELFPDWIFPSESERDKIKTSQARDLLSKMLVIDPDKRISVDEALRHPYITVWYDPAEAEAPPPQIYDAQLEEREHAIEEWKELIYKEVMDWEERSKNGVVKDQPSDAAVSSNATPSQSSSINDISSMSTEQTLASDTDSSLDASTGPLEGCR
CDK6, sequence (Q00534 whole entry): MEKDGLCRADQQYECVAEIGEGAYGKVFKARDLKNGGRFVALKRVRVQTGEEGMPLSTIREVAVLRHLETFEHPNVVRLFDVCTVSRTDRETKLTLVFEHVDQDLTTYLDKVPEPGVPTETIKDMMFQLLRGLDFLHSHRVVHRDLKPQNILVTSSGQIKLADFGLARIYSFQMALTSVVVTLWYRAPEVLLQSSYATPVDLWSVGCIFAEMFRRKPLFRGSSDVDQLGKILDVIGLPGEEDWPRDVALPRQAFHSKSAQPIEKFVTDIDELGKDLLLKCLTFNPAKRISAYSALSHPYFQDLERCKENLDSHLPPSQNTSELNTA
NLK, sequence (Q9UBE8 whole entry): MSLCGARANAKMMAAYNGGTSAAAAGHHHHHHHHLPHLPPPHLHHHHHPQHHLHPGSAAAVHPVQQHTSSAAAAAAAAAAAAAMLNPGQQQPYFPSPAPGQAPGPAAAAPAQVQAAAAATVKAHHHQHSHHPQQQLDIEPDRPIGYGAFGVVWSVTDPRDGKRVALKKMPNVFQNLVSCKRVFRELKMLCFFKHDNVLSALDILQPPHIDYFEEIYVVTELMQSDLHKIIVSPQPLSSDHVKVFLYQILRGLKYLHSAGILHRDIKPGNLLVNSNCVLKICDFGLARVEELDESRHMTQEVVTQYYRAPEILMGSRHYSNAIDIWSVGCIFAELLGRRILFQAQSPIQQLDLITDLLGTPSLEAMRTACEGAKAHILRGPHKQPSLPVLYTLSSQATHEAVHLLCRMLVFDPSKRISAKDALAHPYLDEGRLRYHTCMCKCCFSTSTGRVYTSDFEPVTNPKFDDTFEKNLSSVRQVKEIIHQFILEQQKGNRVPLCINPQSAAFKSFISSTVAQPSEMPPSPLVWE
LATS1, sequence (O95835 whole entry): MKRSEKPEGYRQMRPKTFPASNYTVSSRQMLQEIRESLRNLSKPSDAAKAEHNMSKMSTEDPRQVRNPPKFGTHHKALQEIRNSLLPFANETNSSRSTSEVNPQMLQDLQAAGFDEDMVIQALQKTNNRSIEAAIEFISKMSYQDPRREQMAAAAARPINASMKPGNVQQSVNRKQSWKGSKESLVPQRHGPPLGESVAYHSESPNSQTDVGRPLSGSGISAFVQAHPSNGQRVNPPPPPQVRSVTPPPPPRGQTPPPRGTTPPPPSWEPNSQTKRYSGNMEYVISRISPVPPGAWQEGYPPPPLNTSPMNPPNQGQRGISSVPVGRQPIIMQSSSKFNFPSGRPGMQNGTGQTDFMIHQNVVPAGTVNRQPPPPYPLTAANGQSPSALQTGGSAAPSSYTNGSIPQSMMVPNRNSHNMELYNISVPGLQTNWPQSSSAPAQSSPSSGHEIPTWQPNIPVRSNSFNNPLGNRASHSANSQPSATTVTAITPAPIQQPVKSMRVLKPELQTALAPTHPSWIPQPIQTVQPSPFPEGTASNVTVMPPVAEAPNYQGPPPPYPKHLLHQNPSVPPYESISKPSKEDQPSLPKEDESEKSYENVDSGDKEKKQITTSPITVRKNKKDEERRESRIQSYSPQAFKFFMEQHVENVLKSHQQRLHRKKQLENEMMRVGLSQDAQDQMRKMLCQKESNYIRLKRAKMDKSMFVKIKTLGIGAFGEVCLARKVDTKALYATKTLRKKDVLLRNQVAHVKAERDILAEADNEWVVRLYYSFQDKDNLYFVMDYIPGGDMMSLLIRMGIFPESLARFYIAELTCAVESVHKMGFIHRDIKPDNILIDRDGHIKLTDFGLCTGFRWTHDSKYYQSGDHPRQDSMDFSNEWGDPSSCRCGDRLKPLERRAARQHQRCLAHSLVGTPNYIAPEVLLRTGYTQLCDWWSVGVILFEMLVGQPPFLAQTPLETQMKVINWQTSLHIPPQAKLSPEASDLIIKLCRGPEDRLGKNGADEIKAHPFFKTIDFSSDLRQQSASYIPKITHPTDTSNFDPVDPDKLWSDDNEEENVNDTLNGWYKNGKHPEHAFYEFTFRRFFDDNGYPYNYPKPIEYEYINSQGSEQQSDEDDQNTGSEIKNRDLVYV

inhibition at 1 µM [1]: 32%
inhibition at 1 µM [2]: -9%
inhibition at 1 µM [3]: -9%
inhibition at 1 µM [4]: 1%
inhibition at 1 µM [5]: 2%
inhibition at 1 µM [6]: 5%
inhibition at 1 µM [7]: 3%
inhibition at 1 µM [8]: 6%
inhibition at 1 µM [9]: -11%
inhibition at 1 µM [10]: 40%
inhibition at 1 µM [11]: -10%
inhibition at 1 µM [12]: -6%
inhibition at 1 µM [13]: -1%
inhibition at 1 µM [14]: 0%
inhibition at 1 µM [15]: 5%
inhibition at 1 µM [16]: 4%
inhibition at 1 µM [17]: -14%
inhibition at 1 µM [18]: -1%
SMILES: C[C@@H](Oc1cc(-c2cnn(C3CCNCC3)c2)cnc1N)c1c(Cl)ccc(F)c1Cl [crizotinib]
